Assay results from the CheMixHub drug solubility set.

Assay: xn = mol fraction of the nth substance listed, in the solute-free solvent

Nc1cccc2c1CN(C1CCC(=O)NC1=O)C2=O (stereo unspecified) + CCOC(C)=O + CC(C)O
solubility (g/100 g solution)
Conditions | 273.15 K | 278.15 K | 283.15 K | 288.15 K | 293.15 K | 298.15 K | 303.15 K | 308.15 K | 313.15 K | 318.15 K
x2 = 0.1457 | 0.111 | 0.13 | 0.152 | 0.176 | 0.202 | 0.232 | 0.267 | 0.306 | 0.354 | 0.41
x2 = 0.3126 | 0.141 | 0.157 | 0.176 | 0.198 | 0.226 | 0.259 | 0.294 | 0.337 | 0.385 | 0.438
x2 = 0.5057 | 0.179 | 0.201 | 0.223 | 0.247 | 0.274 | 0.301 | 0.334 | 0.37 | 0.41 | 0.454
x2 = 0.7318 | 0.135 | 0.154 | 0.176 | 0.198 | 0.222 | 0.248 | 0.278 | 0.31 | 0.343 | 0.382

CC1=NNC(=O)N(N=Cc2cccnc2)C1 + CN1CCCC1=O + CC(C)O
solubility (g/100 g solution)
Conditions | 278.15 K | 283.15 K | 288.15 K | 293.15 K | 298.15 K | 303.15 K | 308.15 K | 313.15 K | 318.15 K
x2 = 0.1316 | 0.161 | 0.188 | 0.221 | 0.258 | 0.3 | 0.347 | 0.402 | 0.461 | 0.529
x2 = 0.2878 | 0.235 | 0.273 | 0.319 | 0.37 | 0.429 | 0.494 | 0.57 | 0.652 | 0.746
x2 = 0.4763 | 0.292 | 0.339 | 0.395 | 0.457 | 0.529 | 0.608 | 0.701 | 0.801 | 0.914
x2 = 0.708 | 0.333 | 0.386 | 0.449 | 0.519 | 0.601 | 0.689 | 0.794 | 0.906 | 1.03

Cc1ccc(-c2cc(C(F)(F)F)nn2-c2ccc(S(N)(=O)=O)cc2)cc1 + CN1CCCC1=O + CCCO
solubility (g/100 g solution)
Conditions | x2 = 0.06311 | x2 = 0.1316 | x2 = 0.2062 | x2 = 0.2878 | x2 = 0.3774 | x2 = 0.4763 | x2 = 0.5858 | x2 = 0.708 | x2 = 0.8451
293.15 K | 5.07 | 5.58 | 6.56 | 6.91 | 7.25 | 9.83 | 11.2 | 13.6 | 16.9
298.15 K | 5.96 | 6.26 | 6.96 | 7.72 | 8.23 | 10.3 | 12.2 | 14.6 | 18
303.15 K | 6.68 | 7.1 | 7.85 | 8.74 | 9.16 | 11.9 | 13.4 | 16.3 | 19.6
308.15 K | 7.49 | 8.17 | 9.06 | 9.84 | 10 | 12.7 | 14.5 | 17.3 | 21.1
313.15 K | 8.6 | 9.28 | 9.59 | 10.3 | 10.6 | 13.5 | 15.8 | 19 | 22.6

Cc1ccc(-c2cc(C(F)(F)F)nn2-c2ccc(S(N)(=O)=O)cc2)cc1 + CN1CCCC1=O + CCO
solubility (g/100 g solution)
Conditions | x2 = 0.0491 | x2 = 0.1041 | x2 = 0.1661 | x2 = 0.2365 | x2 = 0.3173 | x2 = 0.4108 | x2 = 0.5202 | x2 = 0.6502 | x2 = 0.8071
293.15 K | 8.15 | 8.62 | 9.04 | 9.29 | 9.69 | 10.4 | 12.6 | 14.8 | 17.6
298.15 K | 8.96 | 9.87 | 10.4 | 10.9 | 11.4 | 12.6 | 14.7 | 16.8 | 19.6
303.15 K | 10.2 | 10.9 | 11.3 | 12.3 | 12.9 | 14.4 | 16.7 | 18.8 | 22
308.15 K | 11.1 | 11.8 | 12.6 | 13.8 | 14.3 | 16.4 | 18.8 | 20.9 | 23.9
313.15 K | 12.1 | 12.7 | 13.9 | 15.2 | 15.9 | 19 | 21.3 | 23.5 | 25.9

O=C1C=CC(=O)N1c1ccccc1Br + CN1CCCC1=O + O
solubility (g/100 g solution)
Conditions | 278.15 K | 283.15 K | 288.15 K | 293.15 K | 298.15 K | 303.15 K | 308.15 K | 313.15 K | 318.15 K | 323.15 K
x2 = 0.0198 | 0.759 | 0.975 | 1.23 | 1.5 | 1.9 | 2.31 | 2.81 | 3.43 | 4.09 | 4.91
x2 = 0.04347 | 2.17 | 2.74 | 3.4 | 4.11 | 5.08 | 6.17 | 7.35 | 8.81 | 10.3 | 12.2
x2 = 0.07228 | 4.95 | 6.03 | 7.43 | 8.92 | 10.6 | 12.4 | 14.7 | 17.2 | 19.7 | 22.4
x2 = 0.1081 | 8.04 | 9.64 | 11.7 | 13.7 | 16.3 | 18.8 | 21.8 | 24.8 | 28 | 31.5
x2 = 0.1538 | 12.4 | 14.7 | 17.1 | 20 | 22.9 | 26.2 | 29.7 | 33.3 | 36.9 | 40.5
x2 = 0.2143 | 16.7 | 19.8 | 22.4 | 25.9 | 29.3 | 33.2 | 37 | 40.7 | 44.8 | 48.7
x2 = 0.2979 | 21.5 | 24.7 | 28.1 | 31.6 | 35.2 | 39.1 | 43.5 | 47.2 | 51.2 | 55.1
x2 = 0.421 | 24.7 | 28.2 | 31.9 | 35.7 | 40 | 44.2 | 48.6 | 52.7 | 56.9 | 60.9
x2 = 0.6207 | 26.4 | 29.9 | 34.1 | 38.1 | 42 | 46.6 | 50.6 | 55.1 | 59.5 | 63.9
